# In patent US20080009418A1, “Selective Inhibitors” (Alchemia LTD., priority 2004, published 2008):
# Tests used:
# Human neurokinin (NK1) = molecular target: T1, Human neurokinin (NK1) (Homo sapiens, UniProt P25103); experiment: Radioligand binding, human neurokinin NK1 membranes, filtration, [125I]-Substance P; conditions: compound at 10 μM, [125I]-Substance P; for A8: inhibition of radioligand binding: filtration
# T1 construct: purchased Perkin Elmer Biosignal
# Procedure, shortened: (§1)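 Membranes from cloned human receptors were incubated with compound and radioligand for 1 hour at room temperature. Bound ligand was collected on 0.3% PEI-soaked filters, washed with cold 50 mM Tris-HCl pH 7.4, and counted by scintillation. Percent inhibition was computed against DMSO totals and reference-ligand nonspecific wells.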
# Human Melanocortin (MC3) = molecular target: T2, Human Melanocortin (MC3) (Homo sapiens, UniProt P41968); experiment: Radioligand binding, human melanocortin MC3 membranes, FlashPlate, [125I]-NDP-αMSH; conditions: compound at 10 μM, [125I]-NDP-αMSH; for A3: inhibition of radioligand binding: FlashPlate
# T2 construct: purchased Perkin Elmer Biosignal
# T2 sequence (P41968 whole entry): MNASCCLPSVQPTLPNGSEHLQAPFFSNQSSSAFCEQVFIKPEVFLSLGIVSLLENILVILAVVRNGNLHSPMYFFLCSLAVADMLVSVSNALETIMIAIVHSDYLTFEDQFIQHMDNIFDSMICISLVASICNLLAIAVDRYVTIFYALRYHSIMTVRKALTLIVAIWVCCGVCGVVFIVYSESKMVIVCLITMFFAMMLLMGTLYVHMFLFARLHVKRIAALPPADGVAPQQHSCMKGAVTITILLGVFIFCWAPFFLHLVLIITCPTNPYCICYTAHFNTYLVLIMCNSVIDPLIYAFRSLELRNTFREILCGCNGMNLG
# Procedure, shortened: (§2)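 Cloned human receptor membranes were coated onto FlashPlate wells and incubated with radioligand and compound (added from a 0.5 mM DMSO daughter plate) for 1 hour at room temperature in the dark. Scintillation counting gave percent inhibition, with DMSO defining total and reference ligand defining non-specific binding.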
# Human Melanocortin (MC4) = molecular target: T3, Human Melanocortin (MC4) (Homo sapiens, UniProt P32245); experiment: Radioligand binding, human melanocortin MC4 membranes, FlashPlate, [125I]-NDP-αMSH; conditions: compound at 10 μM, [125I]-NDP-αMSH; for A4: inhibition of radioligand binding: FlashPlate
# T3 construct: purchased Perkin Elmer Biosignal
# T3 sequence (P32245 whole entry): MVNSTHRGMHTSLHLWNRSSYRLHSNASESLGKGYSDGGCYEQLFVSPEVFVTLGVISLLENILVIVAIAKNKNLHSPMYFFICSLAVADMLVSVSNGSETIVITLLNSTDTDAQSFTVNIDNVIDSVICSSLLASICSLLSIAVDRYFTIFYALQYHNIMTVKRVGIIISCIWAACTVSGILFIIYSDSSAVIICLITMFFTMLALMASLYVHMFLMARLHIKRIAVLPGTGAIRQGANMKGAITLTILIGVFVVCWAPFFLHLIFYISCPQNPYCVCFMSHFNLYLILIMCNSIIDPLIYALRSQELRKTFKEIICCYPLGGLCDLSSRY
# Procedure, shortened: as §2
# Human opioid (ORL1) = molecular target: T4, Human opioid (ORL1) (Homo sapiens, UniProt P41146); experiment: Radioligand binding, human opioid ORL1 membranes, FlashPlate, [125I]-Nociceptin; conditions: compound at 10 μM, [125I]-Nociceptin; for A10: inhibition of radioligand binding: FlashPlate
# T4 construct: purchased Perkin Elmer Biosignal
# T4 sequence (P41146 whole entry): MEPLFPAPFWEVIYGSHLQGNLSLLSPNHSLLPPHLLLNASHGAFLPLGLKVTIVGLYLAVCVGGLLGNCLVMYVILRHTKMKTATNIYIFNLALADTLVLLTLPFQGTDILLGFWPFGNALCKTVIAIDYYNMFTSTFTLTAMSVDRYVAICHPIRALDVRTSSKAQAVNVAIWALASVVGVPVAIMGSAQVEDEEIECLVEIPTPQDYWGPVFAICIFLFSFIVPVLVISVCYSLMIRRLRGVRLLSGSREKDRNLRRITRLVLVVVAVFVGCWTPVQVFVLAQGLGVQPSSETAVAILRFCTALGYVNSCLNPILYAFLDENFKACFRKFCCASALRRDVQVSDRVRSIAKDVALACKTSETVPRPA
# Procedure, shortened: as §2
# [1] = molecular target: T5, Human neuropeptide Y (NPY-Y1) (Homo sapiens, UniProt P25929); experiment: Radioligand binding, human neuropeptide Y NPY-Y1 membranes, FlashPlate, [125I]-PYY; conditions: compound at 10 μM, [125I]-PYY; for A9: inhibition of radioligand binding: FlashPlate
# T5 construct: purchased Perkin Elmer Biosignal
# T5 sequence (P25929 1-384): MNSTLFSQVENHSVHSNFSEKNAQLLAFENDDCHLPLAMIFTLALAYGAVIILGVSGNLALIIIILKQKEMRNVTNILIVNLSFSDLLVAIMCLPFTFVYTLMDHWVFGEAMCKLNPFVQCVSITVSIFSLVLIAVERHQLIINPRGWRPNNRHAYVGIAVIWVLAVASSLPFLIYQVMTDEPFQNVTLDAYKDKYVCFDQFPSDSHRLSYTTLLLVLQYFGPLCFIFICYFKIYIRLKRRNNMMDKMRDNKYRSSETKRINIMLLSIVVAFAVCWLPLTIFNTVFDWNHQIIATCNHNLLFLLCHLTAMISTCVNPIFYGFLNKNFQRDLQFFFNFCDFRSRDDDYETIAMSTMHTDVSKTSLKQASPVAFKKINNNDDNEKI
# Procedure, shortened: as §2
# Human δ-opioid (DOP) = molecular target: T6, Human δ-opioid (DOP) (Homo sapiens, UniProt P41143); experiment: Radioligand binding, human δ-opioid (DOP) membranes, FlashPlate, [3H]-Bremazocine; conditions: compound at 10 μM, [3H]-Bremazocine; for A1: inhibition of radioligand binding: FlashPlate
# T6 construct: purchased Perkin Elmer Biosignal
# T6 sequence (P41143 whole entry): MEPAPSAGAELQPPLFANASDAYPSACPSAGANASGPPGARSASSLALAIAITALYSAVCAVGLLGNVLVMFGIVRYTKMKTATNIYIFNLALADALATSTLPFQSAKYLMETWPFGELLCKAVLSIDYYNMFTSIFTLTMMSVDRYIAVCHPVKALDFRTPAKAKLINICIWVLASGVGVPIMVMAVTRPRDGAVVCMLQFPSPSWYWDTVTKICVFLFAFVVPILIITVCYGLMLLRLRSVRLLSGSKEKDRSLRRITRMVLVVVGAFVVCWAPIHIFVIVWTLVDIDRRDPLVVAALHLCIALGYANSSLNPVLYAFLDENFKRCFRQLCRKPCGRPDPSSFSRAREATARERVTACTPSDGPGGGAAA
# Procedure, shortened: as §2
# Human μ-opioid (MOP) = molecular target: T7, Human μ-opioid (MOP) (Homo sapiens, UniProt P35372); experiment: Radioligand binding, human μ-opioid (MOP) membranes, FlashPlate, [3H]-Naloxone; conditions: compound at 10 μM, [3H]-Naloxone; for A7: inhibition of radioligand binding: FlashPlate
# T7 construct: purchased Perkin Elmer Biosignal
# T7 sequence (P35372 whole entry): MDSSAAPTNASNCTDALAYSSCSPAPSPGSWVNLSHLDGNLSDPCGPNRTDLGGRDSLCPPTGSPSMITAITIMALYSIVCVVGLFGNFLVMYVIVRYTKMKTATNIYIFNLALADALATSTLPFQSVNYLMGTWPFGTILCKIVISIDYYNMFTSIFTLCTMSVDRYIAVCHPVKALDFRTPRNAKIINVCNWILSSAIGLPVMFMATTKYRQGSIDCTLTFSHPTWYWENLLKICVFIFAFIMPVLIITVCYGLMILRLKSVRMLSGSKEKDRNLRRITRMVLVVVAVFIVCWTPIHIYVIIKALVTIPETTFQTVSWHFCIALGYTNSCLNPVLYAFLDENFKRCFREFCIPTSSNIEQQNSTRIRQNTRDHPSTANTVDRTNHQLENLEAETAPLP
# Procedure, shortened: as §2
# Human melanocortin (MC5) = molecular target: T8, Human melanocortin (MC5) (Homo sapiens, UniProt P33032); experiment: Radioligand binding, human melanocortin MC5 membranes, FlashPlate, [125I]-NDP-αMSH; conditions: compound at 10 μM, [125I]-NDP-αMSH; for A5: inhibition of radioligand binding: FlashPlate
# T8 construct: purchased Perkin Elmer Biosignal
# T8 sequence (P33032 whole entry): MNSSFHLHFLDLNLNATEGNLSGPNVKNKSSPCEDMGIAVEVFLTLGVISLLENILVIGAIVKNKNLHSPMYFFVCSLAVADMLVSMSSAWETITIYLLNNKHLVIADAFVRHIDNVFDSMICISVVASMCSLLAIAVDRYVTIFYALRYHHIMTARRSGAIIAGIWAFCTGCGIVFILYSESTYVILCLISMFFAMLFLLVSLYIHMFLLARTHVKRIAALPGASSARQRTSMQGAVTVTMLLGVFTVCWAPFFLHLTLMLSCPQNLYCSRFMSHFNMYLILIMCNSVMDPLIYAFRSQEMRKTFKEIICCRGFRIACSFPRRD
# Procedure, shortened: as §2
# [2] = molecular target: T9, Human melanin-concentrating hormone (MCH1) (Homo sapiens, UniProt Q99705); experiment: Radioligand binding, human melanin-concentrating hormone MCH1 membranes, FlashPlate, [125I]-S36057; conditions: compound at 10 μM; for A6: inhibition of radioligand binding, human melanin-concentrating hormone (MCH1) / A6 radioligand binding, percentage inhibition: [125I]-S36057; for A6: inhibition of radioligand binding: [125I]-S36057, FlashPlate
# T9 construct: purchased Perkin Elmer Biosignal
# T9 sequence (Q99705 whole entry): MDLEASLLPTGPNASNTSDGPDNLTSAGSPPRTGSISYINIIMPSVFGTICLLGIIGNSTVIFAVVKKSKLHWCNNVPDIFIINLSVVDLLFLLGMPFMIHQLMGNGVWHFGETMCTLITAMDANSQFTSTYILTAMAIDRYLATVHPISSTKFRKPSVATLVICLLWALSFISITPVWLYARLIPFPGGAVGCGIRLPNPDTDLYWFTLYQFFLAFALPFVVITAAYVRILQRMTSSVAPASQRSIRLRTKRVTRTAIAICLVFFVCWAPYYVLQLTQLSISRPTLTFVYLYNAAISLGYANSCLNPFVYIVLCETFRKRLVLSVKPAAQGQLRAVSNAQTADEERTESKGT
# Procedure, shortened: as §2
# Human κ-Opioid (KOP) = molecular target: T10, Human κ-Opioid (KOP) (Homo sapiens, UniProt P41145); experiment: Radioligand binding, human κ-opioid (KOP) membranes, filtration, [3H]-Diprenorphine; conditions: compound at 10 μM, [3H]-Diprenorphine; for A2: inhibition of radioligand binding: filtration
# T10 construct: purchased Perkin Elmer Biosignal
# T10 sequence (P41145 whole entry): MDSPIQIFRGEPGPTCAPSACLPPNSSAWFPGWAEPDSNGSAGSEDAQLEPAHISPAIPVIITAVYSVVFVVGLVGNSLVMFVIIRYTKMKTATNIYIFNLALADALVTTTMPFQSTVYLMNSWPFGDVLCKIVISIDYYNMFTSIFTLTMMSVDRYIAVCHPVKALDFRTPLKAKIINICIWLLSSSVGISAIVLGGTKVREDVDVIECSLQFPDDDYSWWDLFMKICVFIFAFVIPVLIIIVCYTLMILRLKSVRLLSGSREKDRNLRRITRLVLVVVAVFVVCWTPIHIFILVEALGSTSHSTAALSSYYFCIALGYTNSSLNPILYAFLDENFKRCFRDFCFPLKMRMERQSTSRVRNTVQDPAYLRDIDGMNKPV
# Procedure, shortened: as §1
# Mouse urotensin (mUR2) = molecular target: T11, Mouse urotensin (mUR2) (Mus musculus, UniProt Q8VIH9); experiment: Radioligand binding, mouse urotensin mUR2 membranes, FlashPlate, [125I]-Urotensin II; conditions: compound at 10 μM, [125I]-Urotensin II; for A11: inhibition of radioligand binding: FlashPlate
# T11 construct: purchased Perkin Elmer Biosignal
# T11 sequence (Q8VIH9 1-385): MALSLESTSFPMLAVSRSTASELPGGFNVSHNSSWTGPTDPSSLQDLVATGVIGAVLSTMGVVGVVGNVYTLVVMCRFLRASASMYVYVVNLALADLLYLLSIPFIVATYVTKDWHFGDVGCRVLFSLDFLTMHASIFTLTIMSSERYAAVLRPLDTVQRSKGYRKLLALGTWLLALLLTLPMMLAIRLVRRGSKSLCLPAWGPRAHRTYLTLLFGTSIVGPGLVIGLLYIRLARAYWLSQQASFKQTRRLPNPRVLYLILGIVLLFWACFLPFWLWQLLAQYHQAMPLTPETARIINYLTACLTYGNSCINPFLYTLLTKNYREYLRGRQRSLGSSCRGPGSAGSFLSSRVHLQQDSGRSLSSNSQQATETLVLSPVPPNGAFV
# Procedure, shortened: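 Cloned mouse urotensin (mUR2) receptor membranes from Perkin Elmer Biosignal were immobilized in FlashPlate microplates using a proprietary coating. Each well got 19.5 μl buffer, then 0.5 μl of DMSO, reference ligand, or compound. Adding 5 μl of [125I]-Urotensin II, diluted to 5× final concentration in binding buffer, started binding. Plates were sealed with TopSeal-A and incubated 1 hour at room temperature in the dark. Wells were counted for 30 seconds each on a TopCount after a 60-second delay, and percentage inhibition was calculated.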
# T1 sequence (P25103 whole entry): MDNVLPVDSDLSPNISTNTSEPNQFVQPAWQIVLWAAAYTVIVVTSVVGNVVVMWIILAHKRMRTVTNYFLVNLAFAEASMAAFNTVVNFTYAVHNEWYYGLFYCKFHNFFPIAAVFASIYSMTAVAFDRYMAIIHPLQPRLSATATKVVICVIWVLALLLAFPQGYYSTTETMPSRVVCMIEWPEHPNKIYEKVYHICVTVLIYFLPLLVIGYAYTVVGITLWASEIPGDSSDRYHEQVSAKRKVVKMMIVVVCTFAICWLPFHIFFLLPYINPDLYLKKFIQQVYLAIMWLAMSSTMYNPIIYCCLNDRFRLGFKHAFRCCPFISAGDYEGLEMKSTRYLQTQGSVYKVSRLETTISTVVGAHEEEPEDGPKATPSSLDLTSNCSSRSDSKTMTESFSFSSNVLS
SMILES,"A8: inhibition of radioligand binding, human neurokinin (NK1) (Human neurokinin (NK1))","A3: inhibition of radioligand binding, human melanocortin (MC3) (Human Melanocortin (MC3))","A4: inhibition of radioligand binding, human melanocortin (MC4) (Human Melanocortin (MC4))","A10: inhibition of radioligand binding, human opioid (ORL1) (Human opioid (ORL1))","A9: inhibition of radioligand binding, human neuropeptide Y (NPY-Y1) [1]","A1: inhibition of radioligand binding, human δ-opioid (DOP) (Human δ-opioid (DOP))","A7: inhibition of radioligand binding, human μ-opioid (MOP) (Human μ-opioid (MOP))","A5: inhibition of radioligand binding, human melanocortin (MC5) (Human melanocortin (MC5))","A6: inhibition of radioligand binding, human melanin-concentrating hormone (MCH1) [2]","A2: inhibition of radioligand binding, human κ-opioid (KOP) (Human κ-Opioid (KOP))","A11: inhibition of radioligand binding, mouse urotensin (mUR2) (Mouse urotensin (mUR2))",A8: inhibition of radioligand binding (Human neurokinin (NK1)),A3: inhibition of radioligand binding (Human Melanocortin (MC3)),A4: inhibition of radioligand binding (Human Melanocortin (MC4)),A10: inhibition of radioligand binding (Human opioid (ORL1)),A9: inhibition of radioligand binding [1],A1: inhibition of radioligand binding (Human δ-opioid (DOP)),A7: inhibition of radioligand binding (Human μ-opioid (MOP)),A5: inhibition of radioligand binding (Human melanocortin (MC5)),A6: inhibition of radioligand binding [2],other results
CSC1OC(COCc2cccc(N)c2)C(O)C(OCc2ccc(Cl)cc2)C1NC(=O)c1ccccc1 (stereo not drawn) [compound 327],+ (“+” indicates greater than 50% inhibition at 10 μM),− (“−” indicates less than 50% inhibition at 10 μM),− (“−” indicates less than 50% inhibition at 10 μM),− (“−” indicates less than 50% inhibition at 10 μM),− (“−” indicates less than 50% inhibition at 10 μM),− (“−” indicates less than 50% inhibition at 10 μM),− (“−” indicates less than 50% inhibition at 10 μM),− (“−” indicates less than 50% inhibition at 10 μM),− (“−” indicates less than 50% inhibition at 10 μM),− (“−” indicates less than 50% inhibition at 10 μM),− (“−” indicates less than 50% inhibition at 10 μM),–,–,–,–,–,–,–,–,–,–
CSC1OC(COCc2ccc(-c3ccccc3)cc2)C(O)C(OCc2ccc3ccccc3c2)C1NC(=O)CCNC(=N)N (stereo not drawn) [compound 314],+ (“+” indicates greater than 50% inhibition at 10 μM),− (“−” indicates less than 50% inhibition at 10 μM),− (“−” indicates less than 50% inhibition at 10 μM),− (“−” indicates less than 50% inhibition at 10 μM),− (“−” indicates less than 50% inhibition at 10 μM),− (“−” indicates less than 50% inhibition at 10 μM),− (“−” indicates less than 50% inhibition at 10 μM),− (“−” indicates less than 50% inhibition at 10 μM),− (“−” indicates less than 50% inhibition at 10 μM),− (“−” indicates less than 50% inhibition at 10 μM),− (“−” indicates less than 50% inhibition at 10 μM),–,–,–,–,–,–,–,–,–,–
COCC1OC(OCc2ccc(Cl)cc2)C(NC(=O)CCNC(=N)N)C(OCc2ccc3ccccc3c2)C1O (stereo not drawn) [compound 211],–,–,–,–,–,–,–,–,–,–,–,+ (“+” indicates greater than 50% inhibition at 10 μM),− (“−” indicates less than 50% inhibition at 10 μM),+ (“+” indicates greater than 50% inhibition at 10 μM),− (“−” indicates less than 50% inhibition at 10 μM),− (“−” indicates less than 50% inhibition at 10 μM),− (“−” indicates less than 50% inhibition at 10 μM),+ (“+” indicates greater than 50% inhibition at 10 μM),+ (“+” indicates greater than 50% inhibition at 10 μM),+ (“+” indicates greater than 50% inhibition at 10 μM),A2: inhibition of radioligand binding (Human κ-Opioid (KOP)): + (“+” indicates greater than 50% inhibition at 10 μM); A11: inhibition of radioligand binding (Mouse urotensin (mUR2)): − (“−” indicates less than 50% inhibition at 10 μM)
COCC1OC(OCc2ccc3ccccc3c2)C(NC(=O)CCN)C(OCc2ccccc2)C1O (stereo not drawn) [compound 231],–,–,–,–,–,–,–,–,–,–,–,+ (“+” indicates greater than 50% inhibition at 10 μM),− (“−” indicates less than 50% inhibition at 10 μM),− (“−” indicates less than 50% inhibition at 10 μM),− (“−” indicates less than 50% inhibition at 10 μM),− (“−” indicates less than 50% inhibition at 10 μM),− (“−” indicates less than 50% inhibition at 10 μM),− (“−” indicates less than 50% inhibition at 10 μM),− (“−” indicates less than 50% inhibition at 10 μM),− (“−” indicates less than 50% inhibition at 10 μM),A2: inhibition of radioligand binding (Human κ-Opioid (KOP)): − (“−” indicates less than 50% inhibition at 10 μM); A11: inhibition of radioligand binding (Mouse urotensin (mUR2)): − (“−” indicates less than 50% inhibition at 10 μM)
CO[C@H]1[C@H](O)[C@@H](COCc2ccc3ccccc3c2)OC(OCc2cccc(O)c2)[C@@H]1NC(=O)CCCNC(=N)N (stereo partly drawn) [compound 168],–,–,–,–,–,–,–,–,–,–,–,–,–,–,–,–,–,–,–,–,"A8 radioligand binding, percentage inhibition (Human neurokinin (NK1)): + (“+” indicates greater than 50% inhibition at 10 μM); A3 radioligand binding, percentage inhibition (Human Melanocortin (MC3)): − (“−” indicates less than 50% inhibition at 10 μM); A4 radioligand binding, percentage inhibition (Human Melanocortin (MC4)): − (“−” indicates less than 50% inhibition at 10 μM); A10 radioligand binding, percentage inhibition (Human opioid (ORL1)): − (“−” indicates less than 50% inhibition at 10 μM); A9 radioligand binding, percentage inhibition [1]: − (“−” indicates less than 50% inhibition at 10 μM); A1 radioligand binding, percentage inhibition (Human δ-opioid (DOP)): − (“−” indicates less than 50% inhibition at 10 μM); A7 radioligand binding, percentage inhibition (Human μ-opioid (MOP)): + (“+” indicates greater than 50% inhibition at 10 μM); A5 radioligand binding, percentage inhibition (Human melanocortin (MC5)): − (“−” indicates less than 50% inhibition at 10 μM); A6 radioligand binding, percentage inhibition [2]: − (“−” indicates less than 50% inhibition at 10 μM); A2 radioligand binding, percentage inhibition (Human κ-Opioid (KOP)): − (“−” indicates less than 50% inhibition at 10 μM); A11 radioligand binding, percentage inhibition (Mouse urotensin (mUR2)): − (“−” indicates less than 50% inhibition at 10 μM)"
COCC1OC(OCc2ccccc2)C(NC(=O)CCCNC(=N)N)C(OCc2ccc(-c3ccccc3)cc2)C1O (stereo not drawn) [compound 187],–,–,–,–,–,–,–,–,–,–,–,–,–,–,–,–,–,–,–,–,"A8 radioligand binding, percentage inhibition (Human neurokinin (NK1)): + (“+” indicates greater than 50% inhibition at 10 μM); A3 radioligand binding, percentage inhibition (Human Melanocortin (MC3)): − (“−” indicates less than 50% inhibition at 10 μM); A4 radioligand binding, percentage inhibition (Human Melanocortin (MC4)): + (“+” indicates greater than 50% inhibition at 10 μM); A10 radioligand binding, percentage inhibition (Human opioid (ORL1)): − (“−” indicates less than 50% inhibition at 10 μM); A9 radioligand binding, percentage inhibition [1]: − (“−” indicates less than 50% inhibition at 10 μM); A1 radioligand binding, percentage inhibition (Human δ-opioid (DOP)): − (“−” indicates less than 50% inhibition at 10 μM); A7 radioligand binding, percentage inhibition (Human μ-opioid (MOP)): − (“−” indicates less than 50% inhibition at 10 μM); A5 radioligand binding, percentage inhibition (Human melanocortin (MC5)): + (“+” indicates greater than 50% inhibition at 10 μM); A6 radioligand binding, percentage inhibition [2]: + (“+” indicates greater than 50% inhibition at 10 μM); A2 radioligand binding, percentage inhibition (Human κ-Opioid (KOP)): − (“−” indicates less than 50% inhibition at 10 μM); A11 radioligand binding, percentage inhibition (Mouse urotensin (mUR2)): − (“−” indicates less than 50% inhibition at 10 μM)"
